Data from the supplement of paper PMC13380429.

Tests used:
Settings in all cases: 72 h
Caco-2 [1] = test: cell viability relative to DMSO; higher = less toxic
Calu-3 [2] = test: as above
HepG2 [3] = test: as above
U2OS [4] = test: as above
Caco-2 [5] = test: relative viability EC50 (midpoint between 100% and the lowest measured viability); higher = less toxic
Calu-3 [6] = test: as above
HepG2 [7] = test: as above
U2OS [8] = test: as above
Caco-2 [9] = test: drug sensitivity score (DSS) for viability; higher = more toxic; extreme values may be limits of the assay
Calu-3 [10] = test: as above
HepG2 [11] = test: as above
U2OS [12] = test: as above
Vero E6 [13] = test: cell viability relative to DMSO; higher = less toxic
Vero E6 [14] = test: relative viability EC50 (midpoint between 100% and the lowest measured viability); higher = less toxic
Vero E6 [15] = test: drug sensitivity score (DSS) for viability; higher = more toxic; extreme values may be limits of the assay

SMILES | cell viability (Caco-2 [1]; 1 nM) [%] | cell viability (Caco-2 [1]; 10 nM) [%] | cell viability (Caco-2 [1]; 100 nM) [%] | cell viability (Caco-2 [1]; 1000 nM) [%] | cell viability (Caco-2 [1]; 10000 nM) [%] | cell viability (Calu-3 [2]; 1 nM) [%] | cell viability (Calu-3 [2]; 10 nM) [%] | cell viability (Calu-3 [2]; 100 nM) [%] | cell viability (Calu-3 [2]; 1000 nM) [%] | cell viability (Calu-3 [2]; 10000 nM) [%] | cell viability (HepG2 [3]; 1 nM) [%] | cell viability (HepG2 [3]; 10 nM) [%] | cell viability (HepG2 [3]; 100 nM) [%] | cell viability (HepG2 [3]; 1000 nM) [%] | cell viability (HepG2 [3]; 10000 nM) [%] | cell viability (U2OS [4]; 1 nM) [%] | cell viability (U2OS [4]; 10 nM) [%] | cell viability (U2OS [4]; 100 nM) [%] | cell viability (U2OS [4]; 1000 nM) [%] | cell viability (U2OS [4]; 10000 nM) [%] | relative viability EC50 (Caco-2 [5]) [µM] | relative viability EC50 (Calu-3 [6]) [µM] | relative viability EC50 (HepG2 [7]) [µM] | relative viability EC50 (U2OS [8]) [µM] | drug sensitivity score (Caco-2 [9]) | drug sensitivity score (Calu-3 [10]) | drug sensitivity score (HepG2 [11]) | drug sensitivity score (U2OS [12]) | cell viability (Vero E6 [13]; 1 nM) [%] | cell viability (Vero E6 [13]; 10 nM) [%] | cell viability (Vero E6 [13]; 100 nM) [%] | cell viability (Vero E6 [13]; 1000 nM) [%] | cell viability (Vero E6 [13]; 10000 nM) [%] | relative viability EC50 (Vero E6 [14]) [µM] | drug sensitivity score (Vero E6 [15])
CC[C@H]1OC(=O)[C@H](C)[C@@H](O[C@H]2C[C@@](C)(OC)[C@@H](O)[C@H](C)O2)[C@H](C)[C@@H](O[C@@H]2O[C@H](C)C[C@H](N(C)C)[C@H]2O)[C@](C)(OC)C[C@@H](C)C(=O)[C@H](C)[C@@H](O)[C@]1(C)O [clarithromycin] | 102 | 103 | 112 | 100 | 90.7 | 93.1 | 107 | 94.5 | 104 | 99.5 | 104 | 104 | 108 | 98 | 99.8 | 99.3 | 102 | 102 | 96.1 | 98.7 | > 10 | > 10 | > 10 | > 10 | 0 | 0 | 0 | 0 |  |  |  |  |  |  | 
O=C(N/N=C/c1ccc(O)c(O)c1)c1cc2ccccc2cc1O [dynasore] | 98.4 | 95.8 | 101 | 104 | 92.8 | 108 | 97.5 | 104 | 103 | 97.4 |  |  |  |  |  | 95.9 | 102 | 103 | 106 | 87.9 | > 10 | > 10 |  | > 10 | 0 | 0 |  | 0 | 103 | 98.3 | 102 | 103 | 97.2 | > 10 | 0
C=C1CCN([C@H](C)[C@](O)(Cn2cncn2)c2ccc(F)cc2F)CC1 [efinaconazole] | 96.9 | 98.3 | 100 | 91.8 | 78.3 | 88 | 99.3 | 94.7 | 96.9 | 91.4 | 102 | 98.3 | 92.4 | 95.9 | 91.5 | 99.2 | 101 | 96.2 | 103 | 96.1 | > 10 | > 10 | > 10 | > 10 | 1.7 | 0 | 0 | 0 |  |  |  |  |  |  | 
CNC(=O)c1c(I)c(NC(C)=O)c(I)c(C(=O)O)c1I [iothalamic-acid-d3] | 91.8 | 91.5 | 87.6 | 94.5 | 102 | 94.6 | 99 | 80.3 | 102 | 85.2 | 107 | 101 | 107 | 94.9 | 100 | 99.6 | 109 | 104 | 106 | 103 | > 10 | > 10 | > 10 | > 10 | 0 | 0.1 | 0 | 0 |  |  |  |  |  |  | 
Cc1c(OCC(F)(F)F)ccnc1C[S+]([O-])c1nc2ccccc2[nH]1 (configuration not stated) [lansoprazole] | 99.7 | 94.3 | 96.6 | 97 | 92.6 | 93.1 | 107 | 95.1 | 107 | 92.3 | 104 | 96.8 | 96.1 | 92.1 | 96.5 | 94.8 | 101 | 93 | 93.8 | 93.8 | > 10 | > 10 | > 10 | > 10 | 0 | 0 | 0 | 0 |  |  |  |  |  |  | 
CC(C)Nc1nc2cc(Cl)c(Cl)cc2n1[C@H]1O[C@@H](CO)[C@H](O)[C@@H]1O [maribavir] | 96.9 | 98.9 | 97.3 | 99.5 | 91 | 96.4 | 112 | 106 | 101 | 102 | 106 | 104 | 110 | 107 | 97.9 | 97.7 | 101 | 92.1 | 102 | 93.7 | > 10 | > 10 | > 10 | > 10 | 0 | 0 | 0 | 0 |  |  |  |  |  |  | 
CC1CCN(CCCC(=O)c2ccc(F)cc2)CC1 [melperone] | 99.3 | 103 | 98.3 | 93.5 | 89.9 |  |  |  |  |  | 104 | 96.5 | 102 | 99.7 | 101 | 99.4 | 98.6 | 95.5 | 100 | 93.7 | > 10 |  | > 10 | > 10 | 0 |  | 0 | 0 | 100 | 98 | 98.9 | 93 | 100 | > 10 | 0
CC12CC3CC(C)(C1)CC(N)(C3)C2 [memantine] | 102 | 91.8 | 90.3 | 96.9 | 96.9 | 101 | 98.8 | 98.3 | 99.7 | 87.1 |  |  |  |  |  | 97.3 | 96.4 | 96.6 | 99.6 | 98.9 | > 10 | > 10 |  | > 10 | 0 | 0.1 |  | 0 | 106 | 99.1 | 105 | 102 | 96.6 | > 10 | 0
CCCCCCCCCCCCCC(=O)[O-].CCCCCCCCCCCCCC(=O)[O-].N[C@@H]1CCCC[C@H]1N.[Pt+2] [miriplatin] | 102 | 93.5 | 98.1 | 91.2 | 104 | 90.9 | 101 | 104 | 99.2 | 87.4 | 105 | 101 | 106 | 97.1 | 92.1 | 100 | 97.7 | 99.2 | 95.4 | 99.3 | > 10 | > 10 | > 10 | > 10 | 0 | 0.1 | 0 | 0 |  |  |  |  |  |  | 
O=C(O)/C=C/c1ccc(O)cc1 [naringeninic-acid] | 88 | 91.5 | 86.1 | 104 | 85.4 | 93.2 | 109 | 100 | 109 | 108 | 92 | 108 | 97.5 | 96.8 | 94 | 102 | 103 | 98.9 | 106 | 101 | > 10 | > 10 | > 10 | > 10 | 0.1 | 0 | 0 | 0 |  |  |  |  |  |  | 
CN[C@H](CC(C)C)C(=O)N[C@H]1C(=O)N[C@@H](CC(N)=O)C(=O)N[C@H]2C(=O)N[C@H]3C(=O)N[C@H](C(=O)N[C@H](C(=O)O)c4cc(O)cc(O)c4-c4cc3ccc4O)[C@H](O[C@H]3C[C@](C)(N)[C@@H](O)[C@H](C)O3)c3ccc(c(Cl)c3)Oc3cc2cc(c3O[C@@H]2O[C@H](CO)[C@@H](O)[C@H](O)[C@H]2O[C@H]2C[C@](C)(NCc3ccc(-c4ccc(Cl)cc4)cc3)[C@@H](O)[C@H](C)O2)Oc2ccc(cc2Cl)[C@H]1O [oritavancin] | 97.2 | 97.7 | 98 | 90.4 | 102 |  |  |  |  |  | 104 | 106 | 98.9 | 104 | 105 | 102 | 100 | 103 | 96.5 | 102 | > 10 |  | > 10 | > 10 | 0 |  | 0 | 0 | 108 | 113 | 93.2 | 106 | 95.7 | > 10 | 0
O=C1c2cc(Cl)ccc2OC2CCON12 (configuration not stated) [seclazone] | 108 | 86.3 | 91 | 97.4 | 99.2 |  |  |  |  |  | 102 | 108 | 94.8 | 97.8 | 107 | 106 | 96.7 | 101 | 105 | 100 | > 10 |  | > 10 | > 10 | 0 |  | 0 | 0 | 90 | 98.2 | 92.7 | 95.2 | 102 | > 10 | 0
CCOC(=O)N1CSC[C@H]1C(=O)O [telmesteine] | 109 | 93.6 | 100 | 90.2 | 95.5 | 97.9 | 91 | 94.8 | 107 | 102 | 101 | 109 | 105 | 90.1 | 88.9 | 97.1 | 100 | 99.2 | 96.4 | 99 | > 10 | > 10 | > 10 | > 10 | 0 | 0 | 0.2 | 0 |  |  |  |  |  |  | 
C=C(NC(=O)C(=C)NC(=O)c1csc(C2=N[C@@H]3c4csc(n4)[C@H]4NC(=O)c5csc(n5)[C@H]([C@](C)(O)[C@@H](C)O)NC(=O)[C@H]5CSC(=N5)/C(=C/C)NC(=O)[C@H]([C@@H](C)O)NC(=O)c5csc(n5)[C@]3(CC2)NC(=O)[C@H](C)NC(=O)C(=C)NC(=O)[C@H](C)NC(=O)[C@H]([C@@H](C)CC)N[C@@H]2C=Cc3c([C@H](C)O)cc(nc3[C@H]2O)C(=O)O[C@@H]4C)n1)C(N)=O [thiostrepton] | 102 | 89.3 | 89.5 | 82.9 | 96.9 | 101 | 95 | 97.8 | 99.1 | 110 | 111 | 102 | 81 | 87.6 | 84.5 | 100 | 94 | 95.8 | 75.3 | 93.6 | > 10 | > 10 | > 10 | > 10 | 0.2 | 0 | 4.3 | 0.7 |  |  |  |  |  |  | 
